The values below come from paper PMC9266561, “1,3-Benzodioxole Derivatives Improve the Anti-Tumor Efficiency of Arsenicals” (International Journal of Molecular Sciences, 2022).

One data set has as its system cancer cells. Kind of data set: MTT assay, cancer cell lines taken together. The class given is cell-based. The protocol: The bioactivity of all the synthetic compounds was evaluated by a MTT assay (Table 1, Tables S1 and S2) against two leukemia cell lines, Molm-13 and NB4; two solid tumor cell lines, HeLa (human cervix cell line) and 4T1 (breast cancer cell line); and two normal cell lines, COS-7 (African green monkey kidney cell line) and rat PBMC (peripheral blood mononuclear cell line).
Cells were cultured in 96-well plates overnight, followed by adding 80 μL of a related medium containing compounds of different concentrations and dissolved in DMSO for 24 h or 48 h. Then, 40 μL of MTT (2.5 mg/mL) was added and the cells were incubated for another 4 h. The cells were then dissolved in 100 μL of 10% SDS solution or DMSO to release and dissolve the purple MTT products, followed by absorbance detection (BioTek, Winooski, VT, USA).

For another data set, the system named is COS-7. Kind of data set: cells. It counts as cell-based, African green monkey.
For a further data set, the system named is TrxR. Put plainly: Cellular TrxR activity of 4T1 cells. Conditions: 12 h incubation. It counts as cell-based.
Data set [1] is described as follows: Side effects in 4T1 tumor-bearing mice. It counts as in vivo. The protocol: (§1) The mice (BALB/c, female, 5 weeks), purchased from Hubei Provincial Laboratory Animal Public Service Center, were injected with 0.1 mL of 4T1 cells (1 × 10^6/mL) in the right haunch. After the tumor grew to approximately 100 mm^3, the mice were randomly divided into three groups: control (PBS:DMSO = 8:2), 1 mg/kg, and 1.5 mg/kg. The MAZ2 was administrated once a week (i.p.) for two doses. The 1.5 mg/kg group had six mice, and the tumors of two mice disappeared after 8 days; that is, after one administration, the two tumors were almost eliminated. The body weight and tumor volume were measured every two days.
Blood samples for the blood cell content tests were collected from the eye socket veins of the mice.
(§2) Fresh tumors and organs were minced quickly in an ice bath and homogenized in a pre-cooled Dounce Tissue Grinder (WHEATON). The homogenate was dissolved by RIPA with 0.1% PMSF. The protein concentration was determined by a BCA Protein Assay Kit (Beyotime, Shanghai, China). A total of 20–40 μg of proteins were separated by 8–12% SDS-PAGE according to the molecular weight of certain proteins, followed by being transferred onto the polyvinylidene difluoride membrane. Then, the membrane was blocked with 5% fat-free milk for 2 h, followed by incubation with primary antibodies and HRP-conjugated secondary antibodies. Then, the images were snapped by QuickChemi5100.
The 5 organs were formalin-fixed for 24 h immediately after the mice were sacrificed, and decalcified for 3.5 h, paraffin-embedded, cut, dewaxed, and hydrated. Some samples were stained with H&E. The pictures in the results were magnified by 400× and the scale bar was 50 µm.

Another data set has as its system Molm-13. Put plainly: cells. It counts as cell-based.
A further data set deals with GSH. Put plainly: GSH content. It counts as cell-based.
The subject of the next data set is 4T1 cells. Put plainly: ROS level by DCFH-DA in 4T1 cells. The class given is cell-based. The protocol: The 4T1 cells treated with the MAZ2 of 0.8 and 1.6 µM were seeded in 6-well plates for 3, 6, 9, 12, and 24 h. Then, the medium was removed and fresh medium with DCFH-DA (0.2 µM) was added, followed by 30 min of incubation. Next, cells were collected and washed twice with PBS. Data were collected by a C6 flow cytometer (BD Biosciences, Franklin Lakes, New Jersey, USA).
The 4T1 cells treated with the MAZ2 of 0.8 and 1.6 µM were cultured in 1 cm dishes specially designed for confocal tests. Nine hours later, DCFH-DA was added for confocal tests.

The subject of another data set is 4T1. Kind of data set: cells. It counts as cell-based.
The subject of the next data set is Molm-13 and 4T1 cells. Put plainly: MDA content (lipid peroxidation). It counts as cell-based. Conditions: 6 and 12 h. The protocol:
The Molm-13 and 4T1 cells were cultured in 6-well plates for 6 and 12 h, followed by an MDA test according to the manufacturer’s instructions.

For the next data set, the system named is 4T1 tumors. Put plainly: 4T1 tumor syngeneic model in Balb/C mice. It counts as in vivo. Conditions: for average tumor weight reduced by: two administrations, day 26. The method, then:
To confirm the bioactivity of MAZ2 in vivo, the tumor growth inhibition in 4T1 tumor syngeneic models in Balb/C mice was investigated (Figure 4A). When tumors grew to about 100 mm^3, the mice were divided into three groups; namely, the control, 1 mg/kg of MAZ2, and 1.5 mg/kg of MAZ2. Either a vehicle or the MAZ2 was injected intraperitoneally once a week. […] Therefore, the experiments were terminated at day 26 after two administrations.
as §1, §2

For a further data set, the system named is HeLa. Put plainly: cells. The class given is cell-based, human.
A further data set deals with Molm-13 cells. Kind of data set: Apoptosis assay by flow cytometry. The class given is cell-based. Conditions: 0.2, 0.3 and 0.4 µM, 24 h. The protocol:
The Molm-13 cells were cultured with 0.2, 0.3, and 0.4 µM MAZ2 for 24 h; then, the cells were collected and stained using annixin V-FITC and PE for 30 min. The separation lines were determined by single staining.
(In general: Flow cytometry measures light scatter and fluorescence of single cells or particles in a stream.)

For data set [2] the following is noted: rat, in vivo.
The subject of the next data set is NB4. Put plainly: cells. The class given is cell-based.
Data set [3] relates to Trx system (TrxR1, Trx1, TrxR2, Trx2). Kind of data set: Transcription of Trx system genes in 4T1 cells. Conditions: 24 h, 1IC50 and 1.5IC50. It counts as cell-based. An excerpt:
See the methods in previous work.

For data set [4], the system named is 4T1 cells with TrxR knocked down. Kind of data set: MTT assay of 4T1 cells with TrxR siRNA knock-down. The class given is cell-based. Background: Formazan colour is commonly taken as a measure of viable cells.
A further data set deals with PBMC. Put plainly: cells. It counts as cell-based, rat.
Data set [5] in a line: Arsenic content of viscera and tumor by ICP-MS. The settings on record: mouse, in vivo.

SMILES strings stand for the structures. Where two headings read alike, the source gives them in different places.

Consider `O=C(O)c1ccc2c(c1)OCO2` [1,3-benzodioxole derivative, piperonylic acid], for which the “anti-proliferation activity to cancer cells” value in the data set on cancer cells (even at a high dosage, Figure S2) was “no anti-proliferation activity”.

In the case of `COc1ccc(C(=O)Nc2ccc([As]3SCCCS3)cc2)cc1` [MAZ2], the IC50 in the data set with COS-7 (read-out: IC50 COS-7 24 h) was found to be 5200 nM; with COS-7 (read-out: IC50 COS-7 48 h), 3300 nM; with Molm-13 (read-out: IC50 Molm 24 h), 200 nM; in the data set on Molm-13 (read-out: IC50 Molm 48 h), 100 nM; with 4T1 (read-out: IC50 4T1 24 h), 800 nM; in the data set on 4T1 (read-out: IC50 4T1 48 h), 400 nM. For the same compound, the IC50 is under 1000 nM in the data set with cancer cells (all cancer cell lines); 400 nM in the data set on HeLa (read-out: IC50 HeLa 24 h); 300 nM with HeLa (read-out: IC50 HeLa 48 h); 400 nM with NB4 (read-out: IC50 NB4 24 h); 300 nM in the data set with NB4 (read-out: IC50 NB4 48 h); 7600 nM in the data set with PBMC (read-out: IC50 PBMC 24 h). Further, the IC50 with PBMC (read-out: IC50 PBMC 48 h) came out at 6900 nM. Moreover, in the data set on TrxR, the “TrxR activity of the 4T1 cells” value was “sharply reduced activity”. In addition, in data set [1] (1 and 1.5 mg/kg i.p. once a week), the “body weight of the mice” value is on record as “no obvious impact on the body weight”. In addition, in [1] (tumor-bearing mice versus normal mice), the “blood cell counts (WBC, NEUT, LYMPH, MONO)” value is “lowered the counts of blood cells and reversed abnormalities in the hematological system”. Besides, the “H&E staining of heart, liver, spleen, lungs, kidneys” value in data set [1] (two MAZ2-administered groups) is “showed healthy organs”. Also, in data set [1] (western blot), the “TrxR content of the liver and spleen” value is “no changes”. In the data set with GSH, the “influence on the GSH content” value was “very little influence”. Further, the “incubation time at which the ROS peak was reached” value in the data set on 4T1 cells was found to be 9 h. In addition, the ROS level entry with 4T1 cells (0.8 and 1.6 µM) is “rose sharply in a dosage-dependent manner”. Further, in the data set on Molm-13 and 4T1 cells, the MDA content entry was “increased acutely and dosage-dependently”. The “average tumor weight reduced by” value in the data set with 4T1 tumors (1 mg/kg i.p. once a week) was found to be 30%; in the data set on 4T1 tumors (1.5 mg/kg i.p. once a week), 15%. In addition, in the data set with 4T1 tumors (1 mg/kg or 1.5 mg/kg i.p. once a week), the “tumor growth (tumor volume)” value is “completely reverse the growth of tumors and gradually eliminate tumors”. Further, the tumors eliminated entry in the data set with 4T1 tumors (1.5 mg/kg i.p. once a week, after two weeks) is “two tumors in the mice belonging to the 1.5 mg/kg MAZ2 group were eliminated”. Moreover, the “TrxR and Trx content of tumors by western blot” value in the data set with 4T1 tumors (tumors of treated mice) is “reduced the TrxR1 content slightly and reduced the Trx1 content by a large amount”. Further, in the data set on Molm-13 cells, the apoptosis induction entry was “induced apoptosis in a dosage-dependent manner”. In [2], the “blood arsenic content over time” value is “decreased slowly and remained at high levels even after 2 days”. The “transcription of the Trx system” value in data set [3] is listed as “decreased the transcription of the Trx system”. Further, the “change of IC50 value after TrxR was knocked down” value in data set [4] is 5.5 fold. Further, in data set [5], the “arsenic content of tumor and viscera” value was “gathered in the tumor instead of the viscera”.

Broadly, the IC50 is the point on the concentration scale where inhibition reaches its midpoint.
